Patent US7067619B2, “Integrin-binding peptides” (La Jolla Cancer Research Foundation, priority 1993, dated 2006)
Read-outs that look alike come from different tables or passages of the source. Bridge positions count the residues as written; N and C are the ends. Ends that are not written are not given here.

Key:
[1] = test system: α5β1 integrin; assay: Cell attachment to immobilized […] peptide (B2/α27 vs B2/Cl cells); assay type: cell-based, human; details: FIG. 8
Text: (§1) Cell lines expressing fibronectin-binding integrins were used to determine peptide activities against these integrins in the cell attachment assay described by Ruoslahti et al., Meth. Enzymol., 144:803–831 (1982), which is incorporated herein by reference. Human plasma fibronectin was iodinated as described by Morla and Ruoslahti, J. Cell Biol., 118:421–429 (1992), which is incorporated herein by reference. Vitronectin was obtained from Telios Pharmaceuticals (San Diego, Calif.). […] Peptide was coated on plastic by incubating at 37° C. for 2 hours in phosphate buffered saline containing 0.25% glutaraldehyde to crosslink the peptide. Free binding sites on the plastic were blocked using BSA. Approximately 1×10^5 cells per well were allowed to attach for 1 hour in the presence or absence of competing peptides. Bound cells were quantitated by staining with 0.1% amido black.
In addition to the inhibition of cell attachment to natural ligands, attachment and inhibition assays were performed using the […] [SEQ ID NO:6] peptide as substrate. The microliter well were coated with […] [SEQ ID NO:6] using glutaraldehyde as described above. Briefly, peptide was coated on plastic by incubating at 37° C. for 2 hours in phosphate buffered saline containing 0.25% glutaraldehyde to crosslink the peptide and free binding sites on the plastic were blocked using BSA. The wells were then saturated with BSA followed by the addition of 50,000 B2/α27 or B2/Cl cells in the presence or absence of the indicated inhibitor. […] Bound cells were quantitated by staining with 0.1% amido black.

[2] = biological target: T1, α5β1 integrin (Homo sapiens, UniProt P05556+P08648); assay: Inhibition of peptide-displaying phage binding to α5β1 integrin by synthetic peptides
T1 construct: The αvβ3, αvβ5 and α5β1 integrins were isolated from human placental extracts; from tissue; host or cells: human placenta
Protocol: Phage clone containing the RGDGW [SEQ ID NO:9] sequence was incubated for 1 hour in integrin-coated microliter wells in the presence of the competing peptides. After extensive washing, the phage remained bound were determined as described in Example XII.
(§2) In addition, most of the phage-binding activity in the αvβ3 preparation was captured into microliter wells coated with antibodies against the αv or β3 subunits as described previously (Koivunen et al., J. Biol. Chem., 268:20205–10 (1993). The αIIbβ3 integrin was isolated from outdated platelets (Pytela et al., Science, 231:1559–1562 (1986)).
(§3) Binding of individual cloned phage to integrins was studied in microliter wells as described in Koivunen et al., J. Cell. Biol., 124:373–380 (1994). Phage binding to α5β1 and αvβ3 were assayed in TBS buffer containing 1% BSA and 1 mM MnCl2 and binding to αvβ5 in the presence of 1 mM CaCl2. Phage that were bound were determined by their ability to infect F-pilus positive K91kan bacteria. Bacteria were grown overnight in microliter wells in the presence of tetracycline and the absorbance indicative of bacterial growth was read at 600 nm with an ELISA plate reader.
Relative affinities of the […] [SEQ ID NO:12] and CRGDC [SEQ ID NO:37] peptides were determined by inhibition of binding of peptide-displaying phage to α5β1 integrin. Peptide-displaying phage were constructed as described by Scott and Smith, Science 249:386–390 (1990) and Example IV. Microwell plates were coated with various integrins as described by Koivunen et al., J. Biol. Chem., 268:20205–10 (1993) and Example II.
The binding of […] [SEQ ID NO:12]-containing peptide ligands to α5β1 integrin was performed as follows. RRETAWA [SEQ ID NO:8]-displaying phage were incubated for 1 hour in the presence of various concentrations of the cyclic peptides containing […] [SEQ ID NO:12] and containing CRGDC [SEQ ID NO:37] in microliter wells coated with the α5β1 integrin. Binding was quantitated by adding K91kan bacteria directly to the wells and growing the bacteria overnight at room temperature (Smith and Scott, Meth. Enzymol., 217:228–257 (1993), which is incorporated herein by reference).
Additional peptide motifs were tested as follows. ELRGDGW-displaying [SEQ ID NO:4] phage were added together with various concentrations of the cyclic peptides containing […] [SEQ ID NO:12] and containing CRGDC [SEQ ID NO:37] into microliter wells coated with the α5β1 integrin, incubated for 1 hour at room temperature and binding to wells was quantitated.

[3] = biological target: αvβ3 integrin (Homo sapiens, UniProt P05106+P06756); assay: Inhibition of peptide-displaying phage binding to αvβ3 integrin by synthetic peptides; parameters: The αvβ3, αvβ5 and α5β1 integrins were isolated from human placental extracts; from tissue; host or cells: human placenta; details: CRGDCL-displaying phage, αvβ3-coated wells; FIG. 3 (result sentence prints α5β1)
Text: as §2, §3
The ability of […] [SEQ ID NO:12] and CRGDC [SEQ ID NO:37] containing peptides to inhibit binding of CRGDCL-displaying [SEQ ID NO:7] phage to the microwells coated with αvβ3 integrin also was examined. CRGDCL-displaying [SEQ ID NO:7] phage were added to a well and either cyclic […] [SEQ ID NO:6] or cyclic […] [SEQ ID NO:5] was added to compete for binding. Binding was quantitated as described above.

[4] = test system: α5β1 integrin; assay: Inhibition of α5β1-mediated cell attachment to fibronectin; assay type: cell-based, human
Text: Cell lines expressing different integrins were used to examine peptide inhibition of integrin function. A human melanoma cell line, C8161, a fibroblast cell line, WI-38, and an osteosarcoma cell line, MG-63 (described by Seftor et al., Canc. Res., 53:3411–3415 (1993); Vogel et al., J. Biol. Chem., 265:5934–5937 (1990); and Pytela et al. (1985), supra, respectively, each of which is incorporated herein by reference) attach to fibronectin through α5β1 integrin, as does B2/α27, a CHO cell line transfected with human α5. B2/C1, the control parental CHO line (Bauer et al., J. Cell. Biol. 116:477–487 (1992), which is incorporated herein by reference), attaches via […]. CHO cells C11 and NIH 3T3 cells express the endogenous Chinese hamster and mouse α5β1 integrins, respectively. The human melanoma cells, A375-M, attach to fibronectin through both α5β1 and α4β1 integrins (Mould et al., J. Biol. Chem. 265:4020–4024 (1990), which is incorporated herein by reference). CHO cell line B2/v7 express the αvβ1 integrin (Zhang et al., J. Cell. Biol. 122:235–242 (1993), which is incorporated herein by reference). The vitronectin-binding integrins […] and αvβ3 were assayed using the cell line HT-29 and IMR-90, respectively (Koivunen et al., J. Biol. Chem. 268: 20205–20210 (1993)).
as §1
Inhibition of cell attachment mediated by either fibronectin- or vitronectin-binding integrins was performed to determine peptide specificity in a biologically relevant system. The assays and cell lines were performed as described above. FIGS. 5 and 6 show the results of cell attachment mediated by the fibronectin binding integrins α5β1 and αvβ1.

[5] = biological target: α4β1 (Homo sapiens, UniProt P05556+P13612); details: Nowlin et al., J. Biol. Chem. 268:20352–59 (1993); cited from earlier work
[6] = biological target: α5β1 (Homo sapiens, UniProt P05556+P08648); details: Nowlin et al., J. Biol. Chem. 268:20352–59 (1993); cited from earlier work
[7] = biological target: T1, α5β1 integrin; assay: Panning and binding of peptide-displaying phage on α5β1 integrin; details: phage-displayed sequence
Text: as §2
Peptide libraries were constructed in fuse 5 vector (Scott and Smith, Science 249:386–390 (1990)) as described previously (Koivunen et al., J. Cell Biol., 124:373–380 (1994). The CX5C, CX6C, CX7C and CX9 [SEQ ID NOs:39–42, respectively] libraries were prepared using synthetic oligonucleotides containing core sequences TGT(NNK)5TGT, TGT(NNK)6TGT, TGT(NNK)7TGT and TGT(NNK)9 [SEQ ID NOS:43–46, respectively] (N=equal molar mixture of A, C, G, T; K=G or T), respectively. The oligonucleotides were made double-stranded by PCR amplification with 5 cycles, purified and ligated to the N-terminus of pIII gene of fuse 5 vector. The CX5C, CX6C, CX7C and CX9 [SEQ ID NOS:39–42, respectively] vectors were transfected into MC1061 cells using 16, 60, 263 and 250 electroporations, respectively. Bacteria were cultured for 24 hours in the presence of 20 μg/ml of tetracycline, and phage were collected from the supernatant by precipitation twice with polyethylene glycol. The phage pellets were dissolved at approximately 10^13 transducing units (TU)/ml in TBS buffer containing 0.02% NaN3 and stored at 4° C. The yields of the CX5C, CX6C, CX7C and CX9 [SEQ ID NOS:39–42, respectively] primary libraries were 3.5×10^8, 1.1×10^9, 4.5×10^5 and 3.5×10^8 clones, respectively. […]
as §3, with “Biol., 124:373–380 (1994). Phage binding to α5β1 and αvβ3 were assayed in TBS buffer containing 1% BSA and 1 mM MnCl2 and binding to αvβ5 in the presence of 1 mM CaCl2.” left out

T1 sequence (P08648 42-894 limits assumed): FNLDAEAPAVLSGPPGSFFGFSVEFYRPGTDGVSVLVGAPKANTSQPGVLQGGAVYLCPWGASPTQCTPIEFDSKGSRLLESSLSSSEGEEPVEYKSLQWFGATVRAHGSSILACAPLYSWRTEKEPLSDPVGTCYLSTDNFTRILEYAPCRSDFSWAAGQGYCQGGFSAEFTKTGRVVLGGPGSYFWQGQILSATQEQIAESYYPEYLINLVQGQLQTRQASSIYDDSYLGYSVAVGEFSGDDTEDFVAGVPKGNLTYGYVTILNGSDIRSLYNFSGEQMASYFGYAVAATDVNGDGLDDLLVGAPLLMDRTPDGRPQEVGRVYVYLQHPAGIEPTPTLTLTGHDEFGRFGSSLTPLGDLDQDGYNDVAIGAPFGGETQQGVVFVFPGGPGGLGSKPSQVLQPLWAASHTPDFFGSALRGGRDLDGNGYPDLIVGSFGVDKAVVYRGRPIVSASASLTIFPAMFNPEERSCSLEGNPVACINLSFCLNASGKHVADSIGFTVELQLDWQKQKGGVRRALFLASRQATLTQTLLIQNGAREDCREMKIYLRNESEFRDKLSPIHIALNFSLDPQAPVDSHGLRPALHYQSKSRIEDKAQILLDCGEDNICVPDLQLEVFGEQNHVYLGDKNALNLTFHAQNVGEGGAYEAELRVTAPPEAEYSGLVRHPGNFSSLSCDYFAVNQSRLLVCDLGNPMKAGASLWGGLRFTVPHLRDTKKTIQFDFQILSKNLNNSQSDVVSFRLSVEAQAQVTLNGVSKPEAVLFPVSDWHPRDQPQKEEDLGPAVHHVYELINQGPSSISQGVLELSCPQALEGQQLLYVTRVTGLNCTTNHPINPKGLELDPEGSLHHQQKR
T1 sequence (P08648 895-1049 partner limits assumed): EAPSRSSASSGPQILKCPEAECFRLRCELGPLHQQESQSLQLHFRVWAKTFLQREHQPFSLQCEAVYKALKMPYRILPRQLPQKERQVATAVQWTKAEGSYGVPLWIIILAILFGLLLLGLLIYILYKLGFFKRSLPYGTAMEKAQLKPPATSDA
T1 sequence (P05556 21-798): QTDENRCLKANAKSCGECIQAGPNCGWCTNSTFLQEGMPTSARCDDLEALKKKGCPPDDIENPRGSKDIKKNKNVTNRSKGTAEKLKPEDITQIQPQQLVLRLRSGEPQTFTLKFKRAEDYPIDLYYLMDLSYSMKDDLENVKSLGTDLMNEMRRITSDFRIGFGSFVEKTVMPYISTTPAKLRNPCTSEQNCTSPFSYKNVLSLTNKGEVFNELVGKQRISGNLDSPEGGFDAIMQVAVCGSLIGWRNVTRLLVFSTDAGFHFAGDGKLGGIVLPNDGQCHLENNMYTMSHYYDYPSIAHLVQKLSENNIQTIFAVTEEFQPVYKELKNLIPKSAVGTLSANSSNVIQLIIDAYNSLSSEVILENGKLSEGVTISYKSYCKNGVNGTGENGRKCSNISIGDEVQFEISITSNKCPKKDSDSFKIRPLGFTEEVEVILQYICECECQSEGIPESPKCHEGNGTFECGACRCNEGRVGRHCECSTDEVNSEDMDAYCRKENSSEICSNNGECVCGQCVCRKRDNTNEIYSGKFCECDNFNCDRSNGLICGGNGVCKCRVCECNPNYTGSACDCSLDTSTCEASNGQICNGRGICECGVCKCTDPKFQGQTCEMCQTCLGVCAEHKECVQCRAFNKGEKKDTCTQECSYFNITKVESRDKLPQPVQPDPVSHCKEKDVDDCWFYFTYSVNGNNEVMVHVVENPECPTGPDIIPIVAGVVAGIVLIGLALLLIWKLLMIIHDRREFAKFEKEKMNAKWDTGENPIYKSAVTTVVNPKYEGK
α4β1, sequence (P13612 34-1032): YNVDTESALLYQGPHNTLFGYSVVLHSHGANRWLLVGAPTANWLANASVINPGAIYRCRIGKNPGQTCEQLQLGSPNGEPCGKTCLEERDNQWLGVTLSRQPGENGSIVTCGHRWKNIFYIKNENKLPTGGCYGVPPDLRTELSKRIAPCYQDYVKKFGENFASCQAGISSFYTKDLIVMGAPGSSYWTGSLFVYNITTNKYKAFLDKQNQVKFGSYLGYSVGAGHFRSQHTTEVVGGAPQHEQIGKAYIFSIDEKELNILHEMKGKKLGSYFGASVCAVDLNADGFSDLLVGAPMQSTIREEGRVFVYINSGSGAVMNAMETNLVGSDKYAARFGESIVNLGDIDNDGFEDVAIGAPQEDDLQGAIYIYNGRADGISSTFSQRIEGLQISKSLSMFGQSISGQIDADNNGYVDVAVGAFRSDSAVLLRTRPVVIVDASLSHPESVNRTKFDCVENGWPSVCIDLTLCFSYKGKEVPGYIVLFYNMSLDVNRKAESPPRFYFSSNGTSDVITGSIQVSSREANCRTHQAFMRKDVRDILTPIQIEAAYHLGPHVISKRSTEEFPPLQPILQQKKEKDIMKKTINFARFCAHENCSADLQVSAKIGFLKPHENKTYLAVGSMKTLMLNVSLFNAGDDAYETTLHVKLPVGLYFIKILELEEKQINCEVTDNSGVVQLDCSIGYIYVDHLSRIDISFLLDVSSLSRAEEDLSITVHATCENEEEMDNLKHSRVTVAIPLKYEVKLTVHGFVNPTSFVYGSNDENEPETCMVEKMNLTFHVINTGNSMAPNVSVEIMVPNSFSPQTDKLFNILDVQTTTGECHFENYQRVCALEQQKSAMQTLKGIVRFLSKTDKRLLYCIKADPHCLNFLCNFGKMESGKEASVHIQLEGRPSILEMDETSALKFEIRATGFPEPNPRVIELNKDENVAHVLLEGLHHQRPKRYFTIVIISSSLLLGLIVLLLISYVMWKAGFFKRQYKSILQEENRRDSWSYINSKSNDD
α4β1, sequence (P05556 21-798): as the sequence (P05556 21-798) above
αvβ3 integrin, sequence (P06756 31-889 limits assumed): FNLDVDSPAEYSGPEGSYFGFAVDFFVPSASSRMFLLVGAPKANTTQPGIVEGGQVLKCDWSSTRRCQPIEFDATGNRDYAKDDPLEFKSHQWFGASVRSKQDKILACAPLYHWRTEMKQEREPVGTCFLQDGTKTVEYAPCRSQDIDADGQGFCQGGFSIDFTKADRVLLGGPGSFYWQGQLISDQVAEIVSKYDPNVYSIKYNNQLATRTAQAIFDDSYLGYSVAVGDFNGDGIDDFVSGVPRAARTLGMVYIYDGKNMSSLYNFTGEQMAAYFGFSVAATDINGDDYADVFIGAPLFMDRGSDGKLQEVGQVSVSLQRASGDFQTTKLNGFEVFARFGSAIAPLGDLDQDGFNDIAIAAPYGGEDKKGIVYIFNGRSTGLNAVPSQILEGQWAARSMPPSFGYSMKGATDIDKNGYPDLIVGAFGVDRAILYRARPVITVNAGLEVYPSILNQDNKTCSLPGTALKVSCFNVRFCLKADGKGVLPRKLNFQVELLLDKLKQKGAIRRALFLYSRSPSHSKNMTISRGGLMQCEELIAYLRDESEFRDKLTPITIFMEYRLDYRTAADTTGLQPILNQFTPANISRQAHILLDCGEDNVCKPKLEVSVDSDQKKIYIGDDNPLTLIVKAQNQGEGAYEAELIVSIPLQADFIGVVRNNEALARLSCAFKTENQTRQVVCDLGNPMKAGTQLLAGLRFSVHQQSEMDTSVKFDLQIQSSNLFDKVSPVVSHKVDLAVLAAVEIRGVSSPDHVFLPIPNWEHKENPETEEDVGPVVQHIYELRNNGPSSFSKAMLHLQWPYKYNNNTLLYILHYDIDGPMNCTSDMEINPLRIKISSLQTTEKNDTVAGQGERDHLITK
αvβ3 integrin, sequence (P06756 891-1048 partner limits assumed): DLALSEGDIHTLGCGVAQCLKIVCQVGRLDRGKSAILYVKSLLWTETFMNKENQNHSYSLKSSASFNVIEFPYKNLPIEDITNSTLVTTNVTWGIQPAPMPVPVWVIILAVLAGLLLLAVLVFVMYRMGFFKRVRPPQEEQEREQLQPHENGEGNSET
αvβ3 integrin, sequence (P05106 27-788): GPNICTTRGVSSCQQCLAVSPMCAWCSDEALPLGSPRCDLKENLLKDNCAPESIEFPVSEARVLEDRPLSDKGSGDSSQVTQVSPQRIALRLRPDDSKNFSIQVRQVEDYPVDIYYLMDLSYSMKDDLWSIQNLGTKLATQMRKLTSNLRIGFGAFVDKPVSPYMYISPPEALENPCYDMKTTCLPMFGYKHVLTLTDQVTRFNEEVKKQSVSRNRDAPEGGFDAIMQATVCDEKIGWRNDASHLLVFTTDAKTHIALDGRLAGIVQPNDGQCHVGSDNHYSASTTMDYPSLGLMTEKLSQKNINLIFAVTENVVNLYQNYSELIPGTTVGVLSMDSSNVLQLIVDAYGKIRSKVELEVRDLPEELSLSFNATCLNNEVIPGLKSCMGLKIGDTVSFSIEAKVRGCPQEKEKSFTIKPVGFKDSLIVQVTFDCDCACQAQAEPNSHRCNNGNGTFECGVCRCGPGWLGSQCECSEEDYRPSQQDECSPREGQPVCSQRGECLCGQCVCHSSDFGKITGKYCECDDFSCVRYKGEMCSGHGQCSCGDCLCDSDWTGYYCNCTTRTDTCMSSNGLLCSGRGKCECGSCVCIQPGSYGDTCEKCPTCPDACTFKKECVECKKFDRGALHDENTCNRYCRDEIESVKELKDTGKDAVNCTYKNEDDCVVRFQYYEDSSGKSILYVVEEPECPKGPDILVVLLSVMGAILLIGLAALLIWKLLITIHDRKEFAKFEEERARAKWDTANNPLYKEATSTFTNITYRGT
α5β1, sequence (P08648 42-894 limits assumed): as the sequence (P08648 42-894 limits assumed) above
α5β1, sequence (P08648 895-1049 partner limits assumed): as the sequence (P08648 895-1049 partner limits assumed) above
α5β1, sequence (P05556 21-798): as the sequence (P05556 21-798) above

## GACRGDCLGA (disulfide 3-7 (inferred)) [reference compound]
[1]; inhibitor at 1 mM
  inhibition of B2/α27 attachment to immobilized RRETAWA-containing peptide: inhibited
[2]; ELRGDGW-displaying phage, CRRETAWAC compared with CRGDC, FIG. 2
  inhibition of binding of ELRGDGW-displaying phage to α5β1 integrin: approximately the same degree
[3]
  inhibition of binding of CRGDCL-displaying phage to integrin-coated wells: completely inhibited

## GRGESP [reference compound]
[4]; B2/α27 cells, FIG. 5
  effect on α5β1-mediated cell attachment to fibronectin: no effect
[2]; RRETAWA-displaying phage, FIG. 4
  effect on RRETAWA-displaying phage binding to α5β1: no effect

## RCD(ThioP)C
[5]
  binding to α4β1: high affinity
[6]
  binding to α5β1: high affinity

## CRSETYWKC
[7]
  binding of peptide-displaying phage to the α5β1 integrin: selectively bind

## CRGDGWC [A*CRGDGWC*G]
[7]
  binding of peptide-displaying phage to the α5β1 integrin: among the best binders
[4]; B2/a27 cells (human α5, CHO β1), FIG. 11, read-out: IC50 of inhibition of attachment of B2/a27 cells to fibronectin
  IC50: 6 µM
[4]; B2/a27 cells, more potent than *CRGDC*
  potency relative to *CRGDC* in B2/a27 attachment to fibronectin: 7 fold
[4]; B2/a27 cells, more potent than *CRRETAWAC*
  potency relative to *CRRETAWAC* in B2/a27 attachment to fibronectin: 7 fold
[4]; MG 63 cells, more potent than *CRRETAWAC*
  potency relative to *CRRETAWAC* in MG 63 cells: 4 fold
[4]; MG 63 cells, read-out: IC50 of inhibition of attachment of MG 63 cells to fibronectin
  IC50: 10 µM
[4]; α5β1-mediated attachment to fibronectin
  improvement in activity compared to linear GRGDSP: about 50 fold
[2]; RGDGW phage, more active than *CRGDC*, FIG. 9
  activity in inhibiting binding of RGD-displaying phage to α5β1 relative to *CRGDC*: 5 fold

## O=C(O)CN(CCN(CC(=O)O)CC(=O)O)CC(=O)O [EDTA, reference compound]
[1]; inhibitor at 10 mM
  inhibition of B2/α27 attachment to immobilized RRETAWA-containing peptide: inhibited
